The test system of experiment [1] is psychrotrophic bacteria in raw milk and lactic acid bacteria. Particulars: 4° C., closed vessel, Murray et al.; cited from earlier work.
The subject of experiment [2] is microaerobic/fermentative microbes (such as lactobacilli). In words: Growth of lactobacillus-type bacteria in raw milk under nitrogen gas. The format is cell-based. Particulars: 12.0° C., N1 environment (120 ml/min), Example 5, FIG. 5G. The protocol: With the device shown in FIG. 1, the effect of nitrogen gas on the natural microflora in raw milk (volume approximately 125 ml) was examined by replacing the air (control) in an open vessel (volume approximately 250 ml) at a constant temperature, with a flow-through of 100% nitrogen gas (purity 99.999%, manufacturer AGA) at two different flow-through rates: N1=120 ml/min, N2=40 ml/min. The temperature of the raw milk in the sample bottles was adjusted by means of the thermostat (14) of the water bath to bring the temperature of the milk to 6.0° C., 7.0° C. or 12.0° C. The temperature variation in the vessel was less than ±0.1° C. The effect of nitrogen gas on the growth of the microflora in a raw milk sample at 12.0° C. Two flow-through rates of the nitrogen gas were used in the study: (▴) 40 ml/min and ([…]) 120 ml/min. […] The following bacterial levels were determined in the samples: FIG. 5A: Total bacteria count (p.m.y./ml) FIG. 5B: Total number of psychrotrophs (p.m.y./ml) FIG. 5C: Total number of proteolytic bacteria (p.m.y./ml) FIG. 5D: Total number of lipolytic bacteria (p.m.y./ml) FIG. 5E: Total number of bacteria producing phospholipase (p.m.y./ml). […]

The test system of experiment [3] is psychrotrophic P. fluorescens strain. To be noted: sterile milk, 4° C., Skura et al.; cited from earlier work.
Experiment [4] has as its system natural microflora in raw milk (total bacteria count). In words: Growth of the natural microflora (total bacteria count) in raw milk under nitrogen gas. The format is cell-based. The protocol: With the device shown in FIG. 1, the effect of nitrogen gas on the natural microflora in raw milk (volume approximately 125 ml) was examined by replacing the air (control) in an open vessel (volume approximately 250 ml) at a constant temperature, with a flow-through of 100% nitrogen gas (purity 99.999%, manufacturer AGA) at two different flow-through rates: N1=120 ml/min, N2=40 ml/min. The apparatus comprises a nitrogen source (1), which is connected by means of a flow channel (2) to two sample bottles (3 and 4). The device also comprises a bottle (5) which contains a reference sample. Filters (6a, 6b, 7a, 7b and 8a, 8b) are connected to the gas flow channels (2), which are made of silicon pipe/hose. The pore size of the filters is 0.2 μm. A flow meter is attached to the flow channels (2), in order to allow the rate at which the gas flows are to be adjusted. The sample bottles are placed in a water bath (10). […] and magnetic mixers (12) are used to mix the contents of the bottles. The water of the water bath (10) is cooled with a cooling coil (11) which is connected to a cooling unit (13), and the entire test apparatus is placed in a cold store, the temperature of which is 5° C. (except the nitrogen bottle). The water temperature of the water bath (10) is adjusted to a desired temperature with the help of an adjustable submersible thermostat (14). The temperature of the raw milk in the sample bottles was adjusted by means of the thermostat (14) of the water bath to bring the temperature of the milk to 6.0° C., 7.0° C. or 12.0° C. The temperature variation in the vessel was less than ±0.1° C. […] The effect of nitrogen gas on the growth of the microflora in a raw milk sample at 6.0° C. Two flow-through rates of the nitrogen gas were used in the study: (▴) 40 ml/min and ([…])120 ml/min. […] The following bacterial levels were determined in the samples: The effect of nitrogen gas on the growth of the microflora in a raw milk sample at 7.0° C. Two flow-through rates of the nitrogen gas were used in the study: (▴) 40 ml/min and ([…])120 ml/min. […] The following bacterial levels were determined in the samples: The effect of nitrogen gas on the growth of the microflora in a raw milk sample at 12.0° C. Two flow-through rates of the nitrogen gas were used in the study: (▴) 40 ml/min and ([…]) 120 ml/min. […] The following bacterial levels were determined in the samples: […]

Experiment [5] relates to psychrotrophs. Nature of the experiment: Growth of psychrotrophs in raw milk under nitrogen gas. In kind it is cell-based. To be noted: 12.0° C., N1 environment (120 ml/min). The protocol:
With the device shown in FIG. 1, the effect of nitrogen gas on the natural microflora in raw milk (volume approximately 125 ml) was examined by replacing the air (control) in an open vessel (volume approximately 250 ml) at a constant temperature, with a flow-through of 100% nitrogen gas (purity 99.999%, manufacturer AGA) at two different flow-through rates: N1=120 ml/min, N2=40 ml/min. The temperature of the raw milk in the sample bottles was adjusted by means of the thermostat (14) of the water bath to bring the temperature of the milk to 6.0° C., 7.0° C. or 12.0° C. The temperature variation in the vessel was less than ±0.1° C. The effect of nitrogen gas on the growth of the microflora in a raw milk sample at 12.0° C. Two flow-through rates of the nitrogen gas were used in the study: (▴) 40 ml/min and ([…]) 120 ml/min. […] The following bacterial levels were determined in the samples: The effect of nitrogen gas on the growth of the microflora in a raw milk sample at 12.0° C. Two flow-through rates of the nitrogen gas were used in the study: (▴) 40 ml/min and ([…]) 120 ml/min. […] The following bacterial levels were determined in the samples: […]

Setting [6] is: 6.0° C., N2 environment (40 ml/min).

Structures are written as SMILES.

`N#N` [nitrogen gas]: in experiment [1], the “growth of the psychrotrophic bacteria in raw milk and of the lactic acid bacteria” value is reported as “only slightly slowed down the growth”; the “production of the proteolytic exoenzymes by the psychrotrophic bacteria” value is “effectively prevented the production”. In addition, in experiment [2], the “growth of microaerobic/fermentative microbes (such as lactobacilli)” value is reported as “able to delay the growth”. For the same compound, in experiment [3], the “growth of P. fluorescens strain versus control culture in normal air” value is given as “grew slower” and the “proteolytic activity of the strain” value is “very low compared with that of the control culture”. For the same compound, in experiment [4] (6.0° C., N1 environment (120 ml/min), measurement period of 11 days), the “growth of the bacteria” value is listed as “totally prevents the growth of the bacteria”. Moreover, in experiment [4] (setting [6]), the “growth of the microbes” value is on record as “capable of preventing the growth of the microbes for 7 days” and the “increase of the microbe level during a period of 3 days” value is “less than 1 log-unit”. Besides, the “total growth/the growth of the microbes” value in experiment [4] (7.0° C., N1 environment (120 ml/min), prevents = log increases by less than one unit in 3 days) is recorded as “still prevents”. Also, the “growth of the total microbial count” value in experiment [4] (7.0° C., N2 environment (40 ml/min)) was “delays the growth of the total microbial count, although it cannot totally prevent the growth”. The “growth of the total microbial count” value in experiment [4] (12.0° C., N1 environment (120 ml/min), Example 4 sample) is recorded as “still prevents or nearly prevents the growth of the total microbial count”. Besides, the “growth of the total number of the microbes” value in experiment [4] (12.0° C., N1 environment (120 ml/min), Example 5 sample) is “substantially delay the growth of the total number of the microbes”. The “growth of the psychrotrophs” value in experiment [5] (Example 4 sample) is “no longer prevents the growth of the psychrotrophs, instead it delays it”. The “growth of the psychrotrophs” value in experiment [5] (Example 5 sample) is on record as “substantially delay”.

Values taken from patent publication US20100159093A1, “METHOD OF TREATING FOODSTUFF” (priority 2008, published 2010).
